Reference: US20130236481A1, “HETEROCYCLE -ARYL COMPOUNDS FOR INFLAMMATION AND IMMUNE-RELATED USES” (SYNTA PHARMACEUTICALS CORP., priority 2007, published 2013)
Counter-ions that a name gives are not always drawn.

These compounds were tested on IL-2 production (assay: Inhibition of IL-2 production in PHA-activated Jurkat cells (ELISA)). Conditions: Homo sapiens, Jurkat, 20 h, PHA 2.5 μg/mL, IL-2 ELISA.
Type: cell-based
Description: Jurkat cells were placed in a 96 well plate (0.5 million cells per well in 1% FBS medium) then a test compound of this invention was added at different concentrations. After 10 minutes, the cells were activated with PHA (final concentration 2.5 μg/mL) and incubated for 20 hours at 37° C. under CO2. The final volume was 200 μL. Following incubation, the cells were centrifuged and the supernatants collected and stored at −70° C. prior to assaying for IL-2 production. A commercial ELISA kit (IL-2 Eli-pair, Diaclone Research, Besancon, France) was used to detect production of IL-2, from which dose response curves were obtained. The IC50 value was calculated as the concentration at which 50% of maximum IL-2 production after stimulation was inhibited versus a non-stimulation control.
Compound `Cc1cc(-c2ccno2)sc1-c1ccc(NC(=O)c2c(F)cccc2F)cc1` [Compound 1, 2,6-difluoro-N-(4-(5-(isoxazol-5-yl)-3-methylthiophen-2-yl)phenyl)benzamide] has an IC50 of 3 nM. Compound `Cc1cc(-c2nccs2)sc1-c1ccc(NC(=O)c2c(F)cccc2F)cc1` [Compound 2, 2,6-difluoro-N-(4-(3-methyl-5-(thiazol-2-yl)thiophen-2-yl)phenyl)benzamide] has an IC50 of 7 nM. With `Cc1cc(-c2cncn2C)sc1-c1ccc(NC(=O)c2c(F)cccc2F)cc1` [Compound 3, 2,6-difluoro-N-(4-(3-methyl-5-(1-methyl-1H-imidazol-5-yl)thiophen-2-yl)phenyl)benzamide] the IC50 was 8 nM. `Cc1sc(-c2cnco2)cc1-c1cnc(NC(=O)c2c(F)cccc2F)cn1` [Compound 4, 2,6-difluoro-N-(5-(2-methyl-5-(oxazol-5-yl)thiophen-3-yl)pyrazin-2-yl)benzamide] was tested, and the IC50 was 15 nM. With `Cc1sc(-c2cnco2)cc1-c1ccc(NC(=O)c2c(F)cccc2F)nc1` [Compound 5, 2,6-difluoro-N-(5-(2-methyl-5-(oxazol-5-yl)thiophen-3-yl)pyridin-2-yl)benzamide] the IC50 was 10 nM. With `Cc1cc(-c2cccnc2)sc1-c1ccc(NC(=O)c2c(F)cccc2F)cc1` [Compound 6, 2,6-difluoro-N-(4-(3-methyl-5-(pyridin-3-yl)thiophen-2-yl)phenyl)benzamide] the IC50 was 2 nM. `Cc1sc(-c2cccnc2)cc1-c1ccc(NC(=O)c2c(F)cccc2F)cc1` [Compound 7, 2,6-difluoro-N-(4-(2-methyl-5-(pyridin-3-yl)thiophen-3-yl)phenyl)benzamide] showed an IC50 of 3 nM. Work on `Cc1sc(-c2nccs2)cc1-c1ccc(NC(=O)c2c(F)cccc2F)cc1` [Compound 8, 2,6-difluoro-N-(4-(2-methyl-5-(thiazol-2-yl)thiophen-3-yl)phenyl)benzamide] yielded an IC50 of 6 nM. `Cc1sc(-c2nnco2)cc1-c1ccc(NC(=O)c2c(F)cccc2F)cc1` [Compound 9, 2,6-difluoro-N-(4-(2-methyl-5-(1,3,4-oxadiazol-2-yl)thiophen-3-yl)phenyl)benzamide] gave an IC50 of 9 nM. With `Cc1sc(-c2cnco2)cc1-c1ccc(NC(=O)c2c(F)cccc2F)cn1` [Compound 10, 2,6-difluoro-N-(6-(2-methyl-5-(oxazol-5-yl)thiophen-3-yl)pyridin-3-yl)benzamide] the IC50 was 31 nM. `Cc1sc(-c2cnc[nH]2)cc1-c1ccc(NC(=O)c2c(F)cccc2F)cc1` [Compound 11, N-(4-(5-(1H-imidazol-5-yl)-2-methylthiophen-3-yl)phenyl)-2,6-difluorobenzamide] gave an IC50 of 16 nM. In the case of `Cc1ccncc1-c1cc(-c2ccc(NC(=O)c3c(F)cccc3F)cc2)c(C)s1` [Compound 12, 2,6-difluoro-N-(4-(2-methyl-5-(4-methylpyridin-3-yl)thiophen-3-yl)phenyl)benzamide], the IC50 is reported as 9 nM. `COc1ncc(Cl)cc1-c1cc(-c2ccc(NC(=O)c3c(F)cccc3F)cc2)c(C)s1` [Compound 13, N-(4-(5-(5-chloro-2-methoxypyridin-3-yl)-2-methylthiophen-3-yl)phenyl)-2,6-difluorobenzamide] showed an IC50 of 73 nM. In the case of `Cc1sc(-c2nccs2)cc1-c1ccc(NC(=O)c2c(F)cccc2F)nc1` [Compound 14, 2,6-difluoro-N-(5-(2-methyl-5-(thiazol-2-yl)thiophen-3-yl)pyridin-2-yl)benzamide], the IC50 is reported as 8 nM. Work on `Cc1sc(-c2nccs2)cc1-c1cnc(NC(=O)c2c(F)cccc2F)cn1` [Compound 15, 2,6-difluoro-N-(5-(2-methyl-5-(thiazol-2-yl)thiophen-3-yl)pyrazin-2-yl)benzamide] yielded an IC50 of 10 nM. `Cc1sc(-c2cnc[nH]2)cc1-c1ccc(NC(=O)c2c(F)cccc2F)nc1` [Compound 16, N-(5-(5-(1H-imidazol-5-yl)-2-methylthiophen-3-yl)pyridin-2-yl)-2,6-difluorobenzamide] gave an IC50 of 50 nM. With `Cc1sc(-c2cncn2C)cc1-c1ccc(NC(=O)c2c(F)cccc2F)nc1` [Compound 17, 2,6-difluoro-N-(5-(2-methyl-5-(1-methyl-1H-imidazol-5-yl)thiophen-3-yl)pyridin-2-yl)benzamide] the IC50 was 25 nM. In the case of `Cc1cnccc1C(=O)Nc1ccc(-c2cc(-c3cnco3)sc2C)cn1` [Compound 18, 3-methyl-N-(5-(2-methyl-5-(oxazol-5-yl)thiophen-3-yl)pyridin-2-yl)isonicotinamide], the IC50 is reported as 17 nM. Work on `Cc1sc(-c2cnccc2Cl)cc1-c1ccc(NC(=O)c2c(F)cccc2F)cc1` [Compound 19, N-(4-(5-(4-chloropyridin-3-yl)-2-methylthiophen-3-yl)phenyl)-2,6-difluorobenzamide] yielded an IC50 of 3 nM. `COc1ccncc1-c1cc(-c2ccc(NC(=O)c3c(F)cccc3F)cc2)c(C)s1` [Compound 20, 2,6-difluoro-N-(4-(5-(4-methoxypyridin-3-yl)-2-methylthiophen-3-yl)phenyl)benzamide] was tested, and the IC50 was 19 nM. For `Cc1sc(-c2cncn2C)cc1-c1cnc(NC(=O)c2c(F)cccc2F)cn1` [Compound 21, 2,6-difluoro-N-(5-(2-methyl-5-(1-methyl-1H-imidazol-5-yl)thiophen-3-yl)pyrazin-2-yl)benzamide], the IC50 was 27 nM. `Cc1sc(-c2cnc[nH]2)cc1-c1cnc(NC(=O)c2c(F)cccc2F)cn1` [Compound 22, N-(5-(5-(1H-imidazol-5-yl)-2-methylthiophen-3-yl)pyrazin-2-yl)-2,6-difluorobenzamide] gave an IC50 of 152 nM. `Cc1sc(-c2cncn2C)cc1-c1ccc(NC(=O)c2c(F)cccc2F)cc1` [Compound 23, 2,6-difluoro-N-(4-(2-methyl-5-(1-methyl-1H-imidazol-5-yl)thiophen-3-yl)phenyl)benzamide] showed an IC50 of 6 nM. With `CCn1cncc1-c1cc(-c2ccc(NC(=O)c3c(F)cccc3F)cc2)c(C)s1` [Compound 25, N-(4-(5-(1-ethyl-1H-imidazol-5-yl)-2-methylthiophen-3-yl)phenyl)-2,6-difluorobenzamide] the IC50 was 27 nM.

Same assay, conditions: PHA 2.5 μg/mL, 20 hours, IL-2 ELISA, hydrochloride
With `Cc1sc(-c2cncn2C)cc1-c1ccc(NC(=O)c2c(F)cccc2F)cc1` [Compound 24, 2,6-difluoro-N-(4-(2-methyl-5-(1-methyl-1H-imidazol-5-yl)thiophen-3-yl)phenyl)benzamide hydrochloride] the IC50 was 3 nM.
